The values that follow are results of earlier work, collected in US20170216178A1, “Cosmetic or Dermatological Composition Containing Retinaldehyde and DNA” (GALEPHAR PHARMACEUTICAL RESEARCH, INC., priority 2016, published 2017).

Each structure is given as a SMILES string.

For series [1], the system named is P. acnes. The following applies: against P. acnes.
The subject of series [2] is skin cancer. The following applies: mice.
Series [3] relates to comedones. As to conditions: topical; compared with retinoic acid (tretinoin); rhino mouse model.
Series [4] concerns skin. As to conditions: topical; compared with retinoids.

`O=C(O)CCCCCCCC(=O)O` [azelaic acid]: the intra-follicular antibacterial activity result in series [1] was “showed an intra-follicular antibacterial activity”. `O=C(OOC(=O)c1ccccc1)c1ccccc1` [benzoyl peroxide]: the “potential for the development of skin cancer” value in series [2] is given as “may increase the potential for the development of skin cancer”.

Take `CC1=C(/C=C/C(C)=C/C=C/C(C)=C/C=O)C(C)(C)CCC1` [retinaldehyde]: the comedolytic action result in series [3] is “identical to that of retinoic acid”. Moreover, the skin tolerance result in series [4] is recorded as “significantly higher skin tolerance”.
